The source of these data is US5310757A, “3,3,5-trimethylcyclohexyl 2-methylpropionate derivatives, their method of preparation and therapeutic compositions in which they are present” (Panmedica, priority 1989, dated 1994).

Molecules are shown by their SMILES.

For test [1], the target named is T1, 3-hydroxy-3-methylglutaryl-CoA reductase (Rattus norvegicus, UniProt P51639).
T1 construct: from tissue
T1 sequence (P51639 1-887): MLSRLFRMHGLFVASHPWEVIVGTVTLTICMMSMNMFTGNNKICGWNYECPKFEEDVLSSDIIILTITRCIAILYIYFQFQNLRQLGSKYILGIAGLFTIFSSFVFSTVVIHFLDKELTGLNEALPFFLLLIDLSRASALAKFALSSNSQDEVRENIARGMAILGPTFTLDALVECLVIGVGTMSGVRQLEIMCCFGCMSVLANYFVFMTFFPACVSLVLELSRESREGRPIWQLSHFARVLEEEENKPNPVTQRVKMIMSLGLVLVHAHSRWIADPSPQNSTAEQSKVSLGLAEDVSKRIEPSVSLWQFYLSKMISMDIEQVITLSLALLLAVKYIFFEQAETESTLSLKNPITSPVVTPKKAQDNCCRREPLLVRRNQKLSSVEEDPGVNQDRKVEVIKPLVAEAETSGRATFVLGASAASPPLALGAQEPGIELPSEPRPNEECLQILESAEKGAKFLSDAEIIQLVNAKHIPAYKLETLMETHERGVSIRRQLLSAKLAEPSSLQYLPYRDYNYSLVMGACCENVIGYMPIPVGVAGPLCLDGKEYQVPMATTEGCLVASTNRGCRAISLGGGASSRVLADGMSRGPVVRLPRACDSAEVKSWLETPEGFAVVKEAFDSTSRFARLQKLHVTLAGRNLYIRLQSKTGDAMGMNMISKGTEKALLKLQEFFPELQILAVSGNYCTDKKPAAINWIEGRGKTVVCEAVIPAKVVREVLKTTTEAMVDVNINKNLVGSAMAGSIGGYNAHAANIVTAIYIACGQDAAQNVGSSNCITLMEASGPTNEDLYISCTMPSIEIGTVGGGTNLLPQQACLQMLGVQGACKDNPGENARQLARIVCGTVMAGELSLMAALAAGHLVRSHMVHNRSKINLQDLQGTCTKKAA
The test can be described thus: inhibition of 3-hydroxy-3-methylglutaryl-CoA reductase activity (method of Kuroda et al.). Type of test: biochemical. The conditions noted are these: concentration for 50% inhibition of 3-hydroxy-3-methylglutaryl-CoA reductase activity. As to the method:
The biosynthesis of cholesterol in an isolated enzymatic system or in a cell culture from organs removed from experimental animals is inhibited by limiting the activity of the enzyme 3-hydroxy-3-methylglutaryl-CoA reductase.
The inhibitory activity of the products according to the present invention was determined by the method of Kuroda et al. (Biochemica et Biophysica Acta, vol. 486, pp. 70-81 (1977)), which is a modification of the method of Shapiro et al. (Analytical Biochemistry, vol. 31, pp. 383-390 (1969)). The results are summarized in Table II, where IC50 is the concentration of product in the experimental medium which is necessary to achieve a 50% inhibition of the 3-hydroxy-3-methylglutaryl-CoA reductase activity, expressed in nanomol.

Test [2] concerns hyperlipidaemia caused by TRITON 1339. Briefly: test for the hyperlipidaemia caused by TRITON 1339. Type of test: in vivo. The conditions noted are these: rats, Triton test after oral administration for six days, 0.5 millimol per kilogram; for HDL cholesterol: Control 0.7 ± 0.1, Triton 0.8 ± 0.1; for Triglycerides: Control 1 ± 0.3, Triton 10 ± 7; for Total cholesterol: Control 2 ± 0.15, Triton 9 ± 3; for Total lipids: Control 3.5 ± 0.4, Triton 20 ± 10. As to the method:
The Table below summarizes the results of the pharmacological studies carried out especially by means of the test for the hyperlipidaemia caused by TRITON 1339. The experimental protocol was that published by J. C. […] et al. (Gaz. Med. France, 3rd inter. coll. 1982, Dijon, 18-22). The tests are performed on groups of 7 rats weighing from 280 to 290 g. The Triton test is carried out after oral administration for six days at a rate of 0.5 millimol per kilogram of body weight. The following lipid parameters are measured: total cholesterol, triglycerides, total lipids and HDL cholesterol.

The test system of a further test is HMG-CoA red. The test can be described thus: HMG-CoA red. activity "ex vivo" in liver microsomes after chronic intraperitoneal administration to rats. More on the design: Mevalonate formed: unit not given here. The conditions noted are these: 50 mg/kg for 6 days; for Mevalonate formed: Control 17; for % inhibition: inhibition of HMG-CoA red. activity, Control 0. As to the method: The inhibitory activity of the products according to the present invention was determined by the method of Kuroda et al. (Biochemica et Biophysica Acta, vol. 486, pp. 70-81 (1977)), which is a modification of the method of Shapiro et al. (Analytical Biochemistry, vol. 31, pp. 383-390 (1969)). […] The doses administered were 50 mg/kg for 6 days; six rats were used in each series; they are sacrificed without anaesthesia and the liver microsomes are isolated for the assay, which is performed according to the above-mentioned protocol.
(Microsomes from liver hold many membrane-bound enzymes, among them those of drug oxidation.)

The term IC50 denotes the concentration that inhibits the measured activity by half. What is called % inhibition is the share of the control response that was lost under treatment. On to `C[C@@H]1C[C@H](OC(=O)C(C)(C)Oc2ccc(C(=O)c3ccc(Cl)cc3)cc2)CC(C)(C)C1` (relative stereo) [Example 2, (CIS) 3,3,5-TRIMETHYLCYCLOHEXYL 2-(4-(4-CHLOROBENZOYL)PHENOXY)-2-METHYLPROPIONATE], for which the IC50 in test [1] came out at 37.2 nM. In addition, in test [2], the HDL cholesterol stood at 2.1 ± 0.5 mmol/L, the Triglycerides was determined as 0.5 ± 0.15 mmol/L, the Total cholesterol amounted to 3.0 ± 0.4 mmol/L and the Total lipids was determined as 3.6 ± 0.2 g/L. For the same compound, in the test on HMG-CoA red., the Mevalonate formed came to 7.3 and the “% inhibition” value is reported as 57%.
In test [1], `C[C@H]1C[C@H](OC(=O)C(C)(C)Oc2ccc(CCNC(=O)c3ccc(Cl)cc3)cc2)CC(C)(C)C1` (relative stereo) [Example 3, (TRANS) 3,3,5-TRIMETHYLCYCLOHEXYL 2-(4-(2-(4-CHLOROBENZAMIDO)ETHYL)PHENOXY)-2-METHYLPROPIONATE] showed an IC50 of 39 nM. Moreover, in test [2], the HDL cholesterol turned out to be 1.6 ± 0.4 mmol/L, the Triglycerides worked out at 1.2 ± 0.4 mmol/L, the Total cholesterol was found to be 1.2 ± 0.7 mmol/L and the Total lipids was 3.8 ± 0.5 g/L.
The matching figures for `C[C@@H]1C[C@H](OC(=O)C(C)(C)Oc2ccc(CCNC(=O)c3ccc(Cl)cc3)cc2)CC(C)(C)C1` (relative stereo) [Example 4, (CIS) 3,3,5-TRIMETHYLCYCLOHEXYL 2-(4-(2-(4-CHLOROBENZAMIDO)ETHYL)PHENOXY)-2-METHYLPROPIONATE]: 25.6 nM, 2.2 ± 0.3 mmol/L, 2.5 ± 0.5 mmol/L, 2.6 ± 0.3 mmol/L and 4.8 ± 0.7 g/L.
Turning to `Cc1ccc(C)c(OCCCC(C)(C)C(=O)O[C@H]2C[C@@H](C)CC(C)(C)C2)c1` (relative stereo) [Example 5, (CIS) 3,3,5-TRIMETHYLCYCLOHEXYL 2-(3-(2,5-DIMETHYLPHENOXY)PROPYL)-2-METHYLPROPIONATE], in test [1], the IC50 came to 30.1 nM. In test [2], the HDL cholesterol was determined as 1.0 ± 0.3 mmol/L, the Triglycerides amounted to 2.0 ± 0.3 mmol/L, the Total cholesterol was found to be 5.0 ± 0.8 mmol/L and the Total lipids turned out to be 3.0 ± 0.4 g/L. Further, in the test on HMG-CoA red., the Mevalonate formed turned out to be 6.71 and the “% inhibition” value came to 60%.
Regarding `C[C@H]1C[C@H](OC(=O)C(C)(C)Oc2ccc(-c3ccccc3)cc2)CC(C)(C)C1` (relative stereo) [Example 7, (TRANS) 3,3,5-TRIMETHYLCYCLOHEXYL 2-(4-PHENYLPHENOXY)-2-METHYLPROPIONATE], in test [1], half-maximal inhibition (IC50) was put at 42.5 nM. Moreover, in test [2], the HDL cholesterol amounted to 1.5 ± 0.4 mmol/L, the Triglycerides was 1.1 ± 0.5 mmol/L, the Total cholesterol was determined as 2.2 ± 0.4 mmol/L and the Total lipids worked out at 3.0 ± 0.5 g/L.
